In ChEMBL document CHEMBL5579865, “Discovery of Broad-Spectrum Herpes Antiviral Oxazolidinone Amide Derivatives and Their Structure-Activity Relationships” (ACS Med Chem Lett, 2024):
Values after ≈ are worked out from the molar mass of the structure shown. Active and inactive are the calls of the source. No cut-off for these calls is given here.

Tests used:
[1] = Oral bioavailability in Wistar rat at 10 mg/kg administration; type: ADME, organism-based; conditions: in vivo
[2] = Unbound AUC in Wistar rat at 3 mg/kg,iv or 10 mg/kg,po administration; type: ADME, organism-based; conditions: in vivo
Human alphaherpesvirus 2 = test: Antiviral activity against HSV-2 G strain infected in African green monkey Vero cells assessed as reduction in viral replication incubated for 72 hrs by qRT-PCR analysis; type: functional, organism-based
Human betaherpesvirus 5 [3] = test: Antiviral activity against HCMV AD169 infected in human MRC5 cells assessed as reduction in viral replication incubated for 72 hrs in presence of 50 % serum by qRT-PCR analysis; type: functional, organism-based; conditions: Human betaherpesvirus 5, AD169, MRC5, 72 h; read-out: EC50
[4] = Inhibition of HCMV DNA polymerase extracted from baculovirus infected Sf21 cells using Heterodimeric nucleic acid as substrate preincubated with enzyme for 30 mins followed by substrate and dATP addition measured after 60 mins by biotinylated UTP incorporation based AlphaLISA assay; set-up: species or system Human betaherpesvirus 5
[5] = Inhibition of VZV DNA polymerase extracted from baculovirus infected Sf21 cells using Heterodimeric nucleic acid as substrate preincubated with enzyme for 30 mins followed by substrate and dATP addition measured after 60 mins by biotinylated UTP incorporation based AlphaLISA assay; set-up: species or system Human alphaherpesvirus 3
[6] = target: Voltage-gated inwardly rectifying potassium channel KCNH2 (Homo sapiens, UniProt Q12809); test: Inhibition of hERG by patch-clamp assay; type: toxicity
[7] = target: Voltage-dependent L-type calcium channel subunit alpha-1C (Homo sapiens, UniProt Q13936); test: Inhibition of Cav1.2 (unknown origin)
[8] = Unbound volume of distribution in Wistar rat at 3 mg/kg,iv or 10 mg/kg,po administration; type: ADME, organism-based; conditions: in vivo
[9] = MRT in Wistar rat at 3 mg/kg,iv or 10 mg/kg,po administration; type: ADME, organism-based; conditions: in vivo
[10] = Unbound fraction in Wistar rat plasma at 3 mg/kg,iv or 10 mg/kg,po administration; type: ADME, organism-based
Human alphaherpesvirus 3 [11] = test: Antiviral activity against VZV Street infected in human MeWo cells assessed as reduction in viral replication incubated for 72 hrs by qRT-PCR analysis; type: functional, organism-based
[12] = Unbound clearance in Wistar rat at 3 mg/kg,iv administration; type: ADME, organism-based; conditions: in vivo
[13] = target: Sodium channel protein type 5 subunit alpha (Homo sapiens, UniProt Q14524); test: Inhibition of Nav1.5 (unknown origin)
Human alphaherpesvirus 1 [14] = test: Antiviral activity against HSV-1 F strain infected in African green monkey Vero cells assessed as reduction in viral replication incubated for 72 hrs by qRT-PCR analysis; type: functional, organism-based
[15] = Inhibition of Inward-rectifier potassium channel (unknown origin); set-up: species or system Homo sapiens
[16] = Unbound volume of distribution in Wistar rat at 0.05 mg/kg,iv or 10 mg/kg,po administration; type: ADME, organism-based; conditions: in vivo
[17] = Unbound AUC in Wistar rat at 0.05 mg/kg,iv or 10 mg/kg,po administration; type: ADME, organism-based; conditions: in vivo
[18] = Metabolic stability in human liver microsomes assessed as intrinsic clearance; type: ADME, Microsome; conditions: read-out: CLH
[19] = Solubility in PBS at pH 7; type: physicochemical
[20] = MRT in Wistar rat at 0.05 mg/kg,iv or 10 mg/kg,po administration; type: ADME, organism-based; conditions: in vivo
[21] = Unbound fraction in Wistar rat plasma at 0.05 mg/kg,iv or 10 mg/kg,po administration; type: ADME, organism-based
[22] = Unbound clearance in Wistar rat at 0.05 mg/kg,iv administration; type: ADME, organism-based; conditions: in vivo
Human alphaherpesvirus 1 [23] = test: Antiviral activity against HSV-1 F strain intranasally infected in BALB/c mouse assessed as increase in mouse survival rate at 120 mg/kg,po bid administrated 2 days before viral infection measured after 2 days; type: functional, organism-based; conditions: time 2.0 day
Human betaherpesvirus 5 [24] = test: Antiviral activity against HCMV AD169 infected in human MRC5 cells assessed as reduction in viral replication incubated for 72 hrs in presence of 10 % serum by qRT-PCR analysis; type: functional, organism-based; conditions: Human betaherpesvirus 5, AD169, MRC5, 72 h
Human alphaherpesvirus 3 [25] = test: Antiviral activity against VZV Street infected in human MRC5 cells assessed as reduction in viral replication incubated for 72 hrs by qRT-PCR analysis; type: functional, organism-based; conditions: Human alphaherpesvirus 3, Street, MRC5, 72 h
[26] = Human alphaherpesvirus 2, G strain, Vero, 72 h, read-out: EC50
[27] = Human alphaherpesvirus 3, Street, MeWo, 72 h, read-out: EC50
[28] = Human alphaherpesvirus 1, F strain, Vero, 72 h, read-out: EC50

Voltage-dependent L-type calcium channel subunit alpha-1C, sequence (Q13936 whole entry): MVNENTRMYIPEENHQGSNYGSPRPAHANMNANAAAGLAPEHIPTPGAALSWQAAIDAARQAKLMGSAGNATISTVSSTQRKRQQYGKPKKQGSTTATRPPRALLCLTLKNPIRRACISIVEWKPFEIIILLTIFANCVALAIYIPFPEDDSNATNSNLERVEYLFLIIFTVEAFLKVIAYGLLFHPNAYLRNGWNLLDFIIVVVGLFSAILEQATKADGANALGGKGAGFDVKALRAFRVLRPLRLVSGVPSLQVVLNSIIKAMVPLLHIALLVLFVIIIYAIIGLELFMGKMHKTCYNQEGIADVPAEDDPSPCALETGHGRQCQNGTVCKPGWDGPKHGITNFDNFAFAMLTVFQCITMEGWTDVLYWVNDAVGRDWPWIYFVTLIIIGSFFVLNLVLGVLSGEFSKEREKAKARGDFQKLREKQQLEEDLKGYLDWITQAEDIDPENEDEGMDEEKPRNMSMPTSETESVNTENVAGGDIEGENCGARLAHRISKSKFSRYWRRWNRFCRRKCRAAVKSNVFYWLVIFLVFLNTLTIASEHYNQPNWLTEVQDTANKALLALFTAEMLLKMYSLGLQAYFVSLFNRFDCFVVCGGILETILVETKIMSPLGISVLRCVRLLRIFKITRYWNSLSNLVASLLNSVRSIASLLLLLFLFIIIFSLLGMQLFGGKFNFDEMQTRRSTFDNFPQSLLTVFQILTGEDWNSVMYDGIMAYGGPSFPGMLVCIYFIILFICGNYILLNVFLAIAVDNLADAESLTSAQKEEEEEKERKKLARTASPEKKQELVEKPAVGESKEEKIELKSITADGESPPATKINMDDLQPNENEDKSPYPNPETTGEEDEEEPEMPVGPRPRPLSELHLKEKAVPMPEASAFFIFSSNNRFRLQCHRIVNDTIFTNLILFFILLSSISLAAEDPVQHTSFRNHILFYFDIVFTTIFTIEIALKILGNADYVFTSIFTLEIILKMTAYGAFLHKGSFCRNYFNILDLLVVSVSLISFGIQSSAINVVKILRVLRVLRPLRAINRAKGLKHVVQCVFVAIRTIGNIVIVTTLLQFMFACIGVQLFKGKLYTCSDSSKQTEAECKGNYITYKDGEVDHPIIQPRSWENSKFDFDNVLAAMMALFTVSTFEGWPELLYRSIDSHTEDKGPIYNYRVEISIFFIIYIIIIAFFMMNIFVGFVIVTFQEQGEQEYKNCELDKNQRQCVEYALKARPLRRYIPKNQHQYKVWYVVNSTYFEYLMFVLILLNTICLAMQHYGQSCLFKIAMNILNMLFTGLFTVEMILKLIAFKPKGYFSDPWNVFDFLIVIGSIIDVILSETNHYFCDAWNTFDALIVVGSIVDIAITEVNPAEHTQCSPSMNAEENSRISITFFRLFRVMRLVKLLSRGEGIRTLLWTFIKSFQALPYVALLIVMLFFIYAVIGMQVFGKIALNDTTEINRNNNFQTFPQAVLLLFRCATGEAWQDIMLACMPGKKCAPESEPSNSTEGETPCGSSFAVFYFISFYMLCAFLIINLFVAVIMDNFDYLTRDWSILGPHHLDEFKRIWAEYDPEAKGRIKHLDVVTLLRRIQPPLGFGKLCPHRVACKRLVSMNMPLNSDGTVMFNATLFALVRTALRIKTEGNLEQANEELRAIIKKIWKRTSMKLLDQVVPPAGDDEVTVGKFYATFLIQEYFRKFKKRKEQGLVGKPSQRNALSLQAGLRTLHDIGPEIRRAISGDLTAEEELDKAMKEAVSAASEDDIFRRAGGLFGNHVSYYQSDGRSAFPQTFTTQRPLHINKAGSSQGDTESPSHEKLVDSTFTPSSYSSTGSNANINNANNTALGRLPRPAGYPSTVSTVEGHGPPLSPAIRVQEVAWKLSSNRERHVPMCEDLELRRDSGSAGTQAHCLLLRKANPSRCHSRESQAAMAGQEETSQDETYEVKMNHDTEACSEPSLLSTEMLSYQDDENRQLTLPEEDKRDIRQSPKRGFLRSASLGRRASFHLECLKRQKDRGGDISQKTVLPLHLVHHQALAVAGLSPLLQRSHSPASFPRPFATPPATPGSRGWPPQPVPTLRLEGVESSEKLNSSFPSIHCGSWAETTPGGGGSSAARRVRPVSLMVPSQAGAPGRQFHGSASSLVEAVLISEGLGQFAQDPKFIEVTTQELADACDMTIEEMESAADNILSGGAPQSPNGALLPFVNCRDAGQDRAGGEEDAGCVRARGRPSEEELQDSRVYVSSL
Sodium channel protein type 5 subunit alpha, sequence (Q14524 whole entry): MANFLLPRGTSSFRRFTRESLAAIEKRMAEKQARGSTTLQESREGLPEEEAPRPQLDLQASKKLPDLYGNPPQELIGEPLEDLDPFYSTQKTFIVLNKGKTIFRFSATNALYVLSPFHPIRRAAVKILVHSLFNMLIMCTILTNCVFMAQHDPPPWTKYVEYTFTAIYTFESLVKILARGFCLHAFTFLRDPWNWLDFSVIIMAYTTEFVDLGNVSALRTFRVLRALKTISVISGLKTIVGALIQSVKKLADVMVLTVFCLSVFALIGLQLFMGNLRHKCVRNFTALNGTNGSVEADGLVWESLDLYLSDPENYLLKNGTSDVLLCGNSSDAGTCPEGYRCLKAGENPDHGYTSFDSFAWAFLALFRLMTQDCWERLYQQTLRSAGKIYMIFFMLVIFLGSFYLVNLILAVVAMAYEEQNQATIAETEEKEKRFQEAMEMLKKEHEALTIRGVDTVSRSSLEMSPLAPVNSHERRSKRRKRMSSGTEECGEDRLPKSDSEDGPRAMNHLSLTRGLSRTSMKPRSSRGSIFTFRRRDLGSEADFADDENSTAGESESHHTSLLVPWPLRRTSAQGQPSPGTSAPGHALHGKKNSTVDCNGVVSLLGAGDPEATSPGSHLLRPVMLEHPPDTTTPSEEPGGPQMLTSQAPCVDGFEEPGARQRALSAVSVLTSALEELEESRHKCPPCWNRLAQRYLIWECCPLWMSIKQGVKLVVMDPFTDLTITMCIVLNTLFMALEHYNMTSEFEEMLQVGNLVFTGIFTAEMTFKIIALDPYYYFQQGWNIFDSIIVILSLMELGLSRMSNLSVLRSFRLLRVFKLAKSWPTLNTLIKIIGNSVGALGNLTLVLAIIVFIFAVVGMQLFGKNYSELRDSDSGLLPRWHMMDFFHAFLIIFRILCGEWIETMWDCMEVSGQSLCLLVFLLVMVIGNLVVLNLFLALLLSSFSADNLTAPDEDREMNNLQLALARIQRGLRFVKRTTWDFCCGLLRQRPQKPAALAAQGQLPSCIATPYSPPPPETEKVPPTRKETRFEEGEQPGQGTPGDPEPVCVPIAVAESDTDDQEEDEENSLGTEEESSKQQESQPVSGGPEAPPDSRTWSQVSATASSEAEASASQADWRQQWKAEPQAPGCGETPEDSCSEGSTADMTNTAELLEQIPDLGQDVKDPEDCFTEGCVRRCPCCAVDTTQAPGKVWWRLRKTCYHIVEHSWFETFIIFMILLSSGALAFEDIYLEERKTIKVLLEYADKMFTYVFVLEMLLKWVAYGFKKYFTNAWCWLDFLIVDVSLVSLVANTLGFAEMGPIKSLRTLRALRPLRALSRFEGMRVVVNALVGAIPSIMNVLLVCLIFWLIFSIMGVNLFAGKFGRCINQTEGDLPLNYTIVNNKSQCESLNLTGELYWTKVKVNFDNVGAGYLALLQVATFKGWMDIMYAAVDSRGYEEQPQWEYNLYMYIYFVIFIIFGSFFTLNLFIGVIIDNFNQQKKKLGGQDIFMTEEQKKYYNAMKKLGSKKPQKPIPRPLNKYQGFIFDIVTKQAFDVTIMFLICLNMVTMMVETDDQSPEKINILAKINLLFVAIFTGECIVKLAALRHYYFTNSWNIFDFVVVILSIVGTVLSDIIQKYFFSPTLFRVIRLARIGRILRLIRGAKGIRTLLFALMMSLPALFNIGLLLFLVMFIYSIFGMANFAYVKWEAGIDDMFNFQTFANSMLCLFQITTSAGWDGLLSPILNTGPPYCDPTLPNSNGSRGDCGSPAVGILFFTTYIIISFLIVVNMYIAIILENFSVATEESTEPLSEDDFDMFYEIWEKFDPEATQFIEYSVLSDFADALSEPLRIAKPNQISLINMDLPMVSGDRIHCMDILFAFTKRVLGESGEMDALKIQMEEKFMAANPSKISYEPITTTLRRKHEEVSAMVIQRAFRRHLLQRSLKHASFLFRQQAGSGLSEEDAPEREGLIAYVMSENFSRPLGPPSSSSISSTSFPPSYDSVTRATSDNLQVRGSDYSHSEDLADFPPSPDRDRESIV

Compound: COc1nc(NC(=O)Cc2ccc(Cl)cc2)ccc1C[C@H]1COC(=O)N1
- bioavailability [1]: 62%
- fAUC [2]: 0.299 µM·h
- EC50 (Human alphaherpesvirus 2; [26]): 85 nM
- EC50 (Human betaherpesvirus 5 [3]): 249 nM
- IC50 [4]: 44 nM
- IC50 [5]: 15 nM
- IC50 [6]: 16 µM
- IC50 [7]: 13.5 µM
- Vdu [8]: 15 L/kg
- MRT [9]: 36 min
- fraction unbound [10]: 0.025
- EC50 (Human alphaherpesvirus 3 [11]; [27]): 46 nM
- CL free [12]: 444 mL/min/kg
- IC50 [13]: 10 µM
- EC50 (Human alphaherpesvirus 1 [14]; [28]): 70 nM
- IC50 [15]: 14.2 µM

Compound: COc1cc(NC(=O)Cc2ccc(Cl)cc2Cl)ccc1C[C@H]1COC(=O)N1
- Vdu [16]: 33 L/kg
- fAUC [17]: 3 nM·h
- EC50 (Human alphaherpesvirus 2; [26]): 222 nM
- EC50 (Human betaherpesvirus 5 [3]): 349 nM
- IC50 [4]: 16 nM
- IC50 [5]: 12 nM
- CLint scaled [18]: 20 mL/min/kg
- solubility [19]: 28 µM (≈ 11.5 µg/mL)
- IC50 [7]: 9.6 µM
- MRT [20]: 42 min
- fraction unbound [21]: 0.022
- CL free [22]: 720 mL/min/kg
- EC50 (Human alphaherpesvirus 3 [11]; [27]): 154 nM
- IC50 [13]: 8.2 µM
- EC50 (Human alphaherpesvirus 1 [14]; [28]): 198 nM
- IC50 [15]: 20.9 µM

Compound: Nc1nc2c(ncn2COCCO)c(=O)[nH]1
- Activity (Human alphaherpesvirus 1 [23]): Active

Compound: O=C(Nc1ccc(Cl)cc1)Nc1ccc(C[C@H]2COC(=O)N2)cc1
- EC50 (Human alphaherpesvirus 2): Not Active
- IC50 [4]: 480 nM
- IC50 [5]: 210 nM
- EC50 (Human alphaherpesvirus 3 [11]): Not Active
- EC50 (Human alphaherpesvirus 1 [14]): Not Active
- EC50 (Human betaherpesvirus 5 [24]): 1110 nM

Compound: COc1nc(NC(=O)Cc2ccc(Cl)cc2)cnc1C[C@H]1COC(=O)N1
- EC50 (Human alphaherpesvirus 2): Not Active
- IC50 [4]: 24100 nM
- IC50 [5]: 23800 nM
- EC50 (Human alphaherpesvirus 3 [25]): > 80200 nM
- EC50 (Human alphaherpesvirus 1 [14]): Not Active
- EC50 (Human betaherpesvirus 5 [24]): > 80200 nM

Compound: COc1cc(NC(=O)Cc2ccc(Br)cc2)ccc1C[C@H]1COC(=O)N1
- Vdu [16]: 68 L/kg
- bioavailability [1]: 23%
- fAUC [17]: 2 nM·h
- EC50 (Human alphaherpesvirus 2; [26]): 110 nM
- EC50 (Human betaherpesvirus 5 [3]): 420 nM
- IC50 [4]: < 4 nM
- IC50 [5]: < 4 nM
- CLint scaled [18]: < 16 mL/min/kg
- solubility [19]: 90 µM (≈ 37.7 µg/mL)
- IC50 [7]: 11.1 µM
- MRT [20]: 54 min
- EC50 (Human alphaherpesvirus 3 [25]): 231 nM
- fraction unbound [21]: 0.022
- CL free [22]: 1168 mL/min/kg
- IC50 [13]: 12.1 µM
- EC50 (Human alphaherpesvirus 1 [14]; [28]): 124 nM
- IC50 [15]: 21.1 µM
